Experimental data reported in patent US9975896B2, “Inhibitors of transcription factors and uses thereof” (Dana-Farber Cancer Institute, Inc., priority 2013, dated 2018).
Where two headings read alike, the source gives them in different places.

What was measured:
BRD4 = BRD4 (Homo sapiens, UniProt O60885); experiment: In vitro AlphaScreen protein binding assay (competition with biotinylated JQ1)
Method: Assays were performed with minor modifications from the manufacturer's protocol (PerkinElmer, USA). All reagents were diluted in 50 mM HEPES, 150 mM NaCl, 0.1% w/v BSA, and 0.01% w/v Tween® 20 at pH 7.5 and allowed to equilibrate to room temperature prior to addition to plates. After addition of Alpha beads to master solutions, all subsequent steps were performed in low light conditions. […] After a 1000-rpm spin-down for 1 minute, 100 nL of the solutions of compounds of the invention in DMSO from stock plates were added by pin transfer using a Janus Workstation (PerkinElmer, USA). The streptavidin-coated donor beads (25 μg/ml final) were added as with previous solution in a 2×, 10 μL volume. Following this addition, the plates were sealed with foil to block light exposure and to prevent evaporation. The plates were spun down again at 1000 rpm for 1 minute. Next, the plates were incubated in the room with the plate reader (for temperature equilibration) for 1 hour prior to reading the assay. Signal is stable for up to 3 hours after donor bead addition.

[1] = tested on: BRD4-dependent Nut-Midline Carcinoma line 797; experiment: Cell viability (ATPlite) in BRD4 dependant cell line 797; settings: Homo sapiens
[2] = tested on: lung carcinoma cell line H2171; experiment: Cellular IC50 in lung carcinoma cell line H2171; type: cell-based
Method: Cells (e.g., BRD4 dependant cells) were counted and adjusted to 60,000 cells/mL. Using a Biotek EL406, 50 μL of the cells in media were distributed into 384 well white plates from Thermo. Immediately after plating, compounds of the invention in DMSO were distributed to plates. For large plate sets, cells were returned to a 37° C. incubator while not in use. The compounds were added to plates using a 100 nL 384 well pin transfer manifold on a Janus workstation. Stocks were arrayed in 10 point quadruplicate dose response in DMSO stock in 384-well Greiner compound plates. After addition of the compounds, plates were incubated for three days in a 37° C. incubator. Cell viability was read out using ATPlite from Perkin Elmer. Plates were removed from the incubator and brought to room temperature prior to use. Lyophilized powder was resuspended in lysis buffer and diluted 1:2 with DI water. 25 μL of this solution was added to each well using the Biotek liquid handler. Plates were sealed with adherent aluminum seals prior to vortexing and spinning down at 1000 g for 1 minute. Plates were incubated for 15 minutes at room temperature before signal was read on an Envision Plate Reader.

[3] = Table 1, in vitro, AlphaScreen, inhibiting the activity of BRD4
[4] = read-out: BRD4--IC50, Table 6, biochemical
[5] = read-out: BRD4--IC50, Table 7, biochemical
[6] = read-out: BRD4--IC50, Table 5, biochemical

SMILES	IC50 (BRD4; [3]) [µM]	IC50 (BRD4; [4]) [µM]	EC50 [1] [µM]	EC50 ([1]; read-out: 797--EC50 (μM)) [µM]	other results
Cc1noc(C)c1-c1ccc(-c2nc3ccc(Cl)cn3c2NCc2ccccc2)cc1 [UMB20, N-Benzyl-6-chloro-2-(4-(3,5-dimethylisoxazol-4-yl)phenyl)imidazo[1,2-α]pyridin-3-amine]	11.8	11.8	18.4	18.4	–
Cc1noc(C)c1-c1ccc(-c2nc3cnccn3c2NC(C)C)cc1 [UMB57, 2-(4-(3,5-dimethylisoxazol-4-yl)phenyl)-N-isopropylimidazo[1,2-a]pyrazin-3-amine]	–	0.807	–	0.494	–
COc1ccc(Nc2c(-c3ccc(-c4c(C)noc4C)cc3)nc3ccccn23)cc1 [UMB30, 2-(4-(3,5-Dimethylisoxazol-4-yl)phenyl)-N-(4-methoxyphenyl)imidazo-[1,2-α]pyridin-3-amine]	2.76	2.76	7.36	7.36	–
Cc1noc(C)c1-c1ccc(-c2nc3cnccn3c2N[C@@H](C)c2ccccc2)cc1 [Compound 21a, (S)-2-(4-(3,5-dimethylisoxazol-4-yl)phenyl)-N-(1-phenylethyl)imidazo[1,2-a]pyrazin-3-amine]	–	2.86	–	–	–
Cc1noc(C)c1-c1ccc(-c2nc3cnccn3c2NCC(=O)OC(C)(C)C)cc1 [Compound 24a, Tert-butyl (2-(4-(3,5-dimethylisoxazol-4-yl)phenyl)imidazo[1,2-a]pyrazin-3-yl)glycinate]	–	4.96	–	–	–
Cc1ccc2nc(-c3ccc(-c4c(C)noc4C)cc3)c(NC(C)(C)C)n2c1 [Compound 27a, N-(tert-butyl)-2-(4-(3,5-dimethylisoxazol-4-yl)phenyl)-6-methylimidazo[1,2-a]pyridin-3-amine]	–	3.17	–	–	–
CCOC(=O)CNc1c(-c2ccc(-c3c(C)noc3C)cc2)nc2cnccn12 [Compound 23a, Ethyl 2-((2-(4-(3,5-dimethylisoxazol-4-yl)phenyl)imidazo[1,2-a]pyrazin-3-yl)amino)acetate]	–	4.53	–	–	–
Cc1noc(C)c1-c1ccc(-c2nc3ccncn3c2NC(C)(C)C)cc1 [UMB56, N-(Tert-butyl)-2-(4-(3,5-dimethylisoxazol-4-yl)phenyl)imidazo[1,2-c]pyrimidin-3-amine]	–	20.7	–	–	–
Cc1noc(C)c1-c1ccc(-c2nc3cnccn3c2NC(C)(C)C)cn1 [UMB53, N-(tert-butyl)-2-(6-(3,5-dimethylisoxazol-4-yl)pyridin-3-yl)imidazo[1,2-a]pyrazin-3-amine]	–	–	–	> 100	IC50 (BRD4; [5]): 51.9 µM
Cc1noc2ccc(-c3ccc(-c4nc5ccccn5c4NCc4ccccc4)cc3)cc12 [UMB22]	68.3	–	12.4	–	–
Cc1noc(C)c1-c1cccc(-c2nc3ccccn3c2NCc2ccccc2)c1 [UMB26]	5.1	–	20.2	–	–
Cc1noc(C)c1-c1ccc(-c2nc3c(C(F)(F)F)cccn3c2NC(C)(C)C)cc1 [Compound 28a, N-(tert-butyl)-2-(4-(3,5-dimethylisoxazol-4-yl)phenyl)-8-(trifluoromethyl)imidazo[1,2-a]pyridin-3-amine]	–	11.9	–	–	–
Cc1noc(C)c1-c1ccc(-c2nc3ccc(Cl)cn3c2NC(C)(C)C)cc1 [UMB31, N-(t-Butyl)-6-chloro-2-(4-(3,5-dimethylisoxazol-4-yl)phenyl)-imidazo-[1,2-α]pyridin-3-amine]	1.17	1.17	2.19	2.19	–
CCCCN1C(=O)c2ccccc2NC(=O)C1c1ccc(-c2c(C)noc2C)c(OC)c1 (stereo not drawn) [UMB18, 2-Butyl-3-(4-(3,5-dimethylisoxazol-4-yl)-3-methoxyphenyl)-2,3-dihydro-1H-benzo[e][1,4]diazepine-1,4(5H)-dione]	–	–	–	9.91	IC50 (BRD4; [6]): 13 µM
COc1ccc(Nc2c(-c3ccc(-c4c(C)noc4C)cc3)nc3ccc(Cl)cn23)cc1 [UMB23, 6-Chloro-2-(4-(3,5-dimethylisoxazol-4-yl)phenyl)-N-(4-methoxy-phenyl)imidazo-[1,2-α]pyridine-3-amine]	31.5	31.5	20.7	20.7	–
COc1cc(-c2c(C)noc2C)ccc1-c1nc2cnccn2c1NC(C)(C)C [Compound 39a, N-(tert-butyl)-2-(4-(3,5-dimethylisoxazol-4-yl)-2-methoxyphenyl)imidazo[1,2-a]pyrazin-3-amine]	–	–	–	–	IC50 (BRD4; [5]): 0.562 µM

SMILES	IC50 (BRD4; [3]) [µM]	IC50 (BRD4; [4]) [µM]	EC50 [1] [µM]	EC50 ([1]; read-out: 797--EC50 (μM)) [µM]	other results
Cc1noc(C)c1-c1ccc(-c2nc3ccccn3c2NCc2ccccc2)cc1 [UMB11, N-Benzyl-2-(4-(3,5-dimethylisoxazol-4-yl)phenyl)imidazo[1,2-α]pyridin-3-amine]	–	–	–	–	IC50 ([2]; Homo sapiens, NCI-H2171, Table 2, cellular, lung carcinoma cell line H2171): 0.76 µM; cellular activity in H2171 ([2]; text b616): show cellular activity in H2171
Cc1noc(C)c1-c1ccc(-c2nc3ccccn3c2NC2CCCCC2)cc1 [UMB28, N-Cyclohexyl-2-(4-(3,5-dimethylisoxazol-4-yl)phenyl)imidazo[1,2-α]pyridin-3-amine]	0.904	0.904	5.07	5.07	–
Cc1noc(C)c1-c1ccc(-c2nc3cnccn3c2NC(C)(C)C)cc1F [UMB55, N-(tert-butyl)-2-(4-(3,5-dimethylisoxazol-4-yl)-3-fluorophenyl)imidazo[1,2-a]pyrazin-3-amine]	–	–	–	12.8	IC50 (BRD4; [5]): 13 µM
Cc1noc(C)c1-c1ccc(-c2nc3cnccn3c2NC(C)(C)C)nc1 [UMB54, N-(tert-butyl)-2-(5-(3,5-dimethylisoxazol-4-yl)pyridin-2-yl)imidazo[1,2-a]pyrazin-3-amine]	–	–	–	8.29	IC50 (BRD4; [5]): 12.9 µM
COc1cc(-c2c(C)noc2C)ccc1-c1nc2cnccn2c1NC(C)C [Compound 40a, 2-(4-(3,5-dimethylisoxazol-4-yl)-2-methoxyphenyl)-N-isopropylimidazo[1,2-a]pyrazin-3-amine]	–	–	–	–	IC50 (BRD4; [5]): 0.474 µM
Cc1noc(C)c1-c1ccc(-c2nc3ccccn3c2N)cc1 [Compound 12a, 2-(4-(3,5-Dimethylisoxazol-4-yl)phenyl)imidazo[1,2-a]pyridin-3-amine]	–	3.89	–	–	–
COC(=O)c1ccc2nc(-c3ccc(-c4c(C)noc4C)cc3)c(NC(C)(C)C)n2c1 [Compound 29a, Methyl 3-(tert-butylamino)-2-(4-(3,5-dimethylisoxazol-4-yl)phenyl)imidazo[1,2-a]pyridine-6-carboxylate]	–	1.62	–	–	–
COc1ccc(Nc2c(-c3ccc(-c4c(C)noc4C)cc3)nc3cc(OC)ncn23)cc1 [UMB24, 2-(4-(3,5-Dimethylisoxazol-4-yl)phenyl)-7-methoxy-N-(4-methoxy-phenyl)imidazo[1,2-c]pyrimidin-3-amine]	2.89	2.89	11.8	11.8	–
CCCCNc1c(-c2ccc(-c3c(C)noc3C)cc2)nc2cnccn12 [Compound 35a, N-butyl-2-(4-(3,5-dimethylisoxazol-4-yl)phenyl)imidazo[1,2-a]pyrazin-3-amine]	–	1.66	–	–	–
Cc1noc(C)c1-c1ccc(-c2nc3ncccn3c2NC(C)(C)C)cc1 [Compound 33a, N-(Tert-butyl)-2-(4-(3,5-dimethylisoxazol-4-yl)phenyl)imidazo[1,2-a]pyrimidin-3-amine]	–	0.86	–	–	–
Cc1noc(C)c1-c1cccc(C2Nc3ccccc3NC3=C2C(=O)OC3)c1 (stereo not drawn) [UMB27, 10-(3-(3,5-Dimethylisoxazol-4-yl)phenyl)-3,4,9,10-tetrahydro-1H-benzo[b]furo[3,4-e][1,4]diazepin-1-one]	2.05	–	207	> 100	IC50 (BRD4; [6]): 2.05 µM
Cc1noc(C)c1-c1ccc(-c2nc3ccccn3c2NC(C)(C)C)cc1 [UMB29, N-(t-Butyl)-2-(4-(3,5-dimethylisoxazol-4-yl)phenyl)imidazo[1,2-α]pyridin-3-amine]	0.479	0.479	2.04	2.04	–
COc1ccc(Nc2c(-c3ccc(-c4c(C)noc4C)cc3)nc3cnccn23)cc1 [UMB25, 2-(4-(3,5-Dimethylisoxazol-4-yl)phenyl)-N-(4-methoxyphenyl)imidazo[1,2-a]pyrazin-3-amine]	–	7.86	32.8	32.8	–
Cc1noc(C)c1-c1ccc(-c2nc3cnccn3c2NCC(=O)O)cc1 [Compound 22a, 2-((2-(4-(3,5-Dimethylisoxazol-4-yl)phenyl)imidazo[1,2-a]pyrazin-3-yl)amino)acetic acid]	–	–	–	–	IC50 (BRD4; BRD4--IC50 (μM), Table 6, biochemical): > 100 µM
Cc1noc(C)c1-c1ccc(-c2nc3ccc(C(=O)O)cn3c2NC(C)(C)C)cc1 [Compound 30a, 3-(Tert-butylamino)-2-(4-(3,5-dimethylisoxazol-4-yl)phenyl)imidazo[1,2-a]pyridine-6-carboxylic acid]	–	0.968	–	–	–
Cc1noc(C)c1-c1ccc(-c2nc3cnccn3c2NCc2ccccc2)cc1 [UMB21, N-Benzyl-2-(4-(3,5-dimethylisoxazol-4-yl)phenyl)imidazo[1,2-α]-pyrazin-3-amine]	18.8	18.8	49.1	49.1	–
